# Reference: the OligoGym collection
# Oligonucleotides are given in HELM: sugar(base)linkage, 5' to 3'; d 2'-deoxyribose, r ribose, m 2'-O-methylribose, p phosphate. ss, as = sense and antisense strand
# Target: UBE2N
# Experiment: reporter assay of Huesken 2005
# Conditions: siRNA
# Also: test concentration or dose not given here.
row,Substance,normalised inhibition (eCFP-eYFP dual reporter) [%]
1,RNA1{r(G)p.r(C)p.r(A)p.r(G)p.r(A)p.r(U)p.r(C)p.r(C)p.r(G)p.r(C)p.r(A)p.r(C)p.r(A)p.r(G)p.r(U)p.r(U)p.r(C)p.r(U)p.r(G)p.d(T)p.d(T)}|RNA2{r(C)p.r(A)p.r(G)p.r(A)p.r(A)p.r(C)p.r(U)p.r(G)p.r(U)p.r(G)p.r(C)p.r(G)p.r(G)p.r(A)p.r(U)p.r(C)p.r(U)p.r(G)p.r(C)p.d(A)p.d(G)}$$$RNA1{StrandType:ss}|RNA2{StrandType:as}$,86.3
2,RNA1{r(G)p.r(C)p.r(C)p.r(G)p.r(A)p.r(A)p.r(C)p.r(C)p.r(A)p.r(G)p.r(A)p.r(U)p.r(G)p.r(A)p.r(G)p.r(A)p.r(G)p.r(C)p.r(A)p.d(T)p.d(T)}|RNA2{r(U)p.r(G)p.r(C)p.r(U)p.r(C)p.r(U)p.r(C)p.r(A)p.r(U)p.r(C)p.r(U)p.r(G)p.r(G)p.r(U)p.r(U)p.r(C)p.r(G)p.r(G)p.r(C)p.d(T)p.d(T)}$$$RNA1{StrandType:ss}|RNA2{StrandType:as}$,82.6
3,RNA1{r(G)p.r(G)p.r(A)p.r(C)p.r(U)p.r(U)p.r(U)p.r(U)p.r(A)p.r(A)p.r(A)p.r(C)p.r(U)p.r(U)p.r(G)p.r(A)p.r(A)p.r(C)p.r(U)p.d(T)p.d(T)}|RNA2{r(A)p.r(G)p.r(U)p.r(U)p.r(C)p.r(A)p.r(A)p.r(G)p.r(U)p.r(U)p.r(U)p.r(A)p.r(A)p.r(A)p.r(A)p.r(G)p.r(U)p.r(C)p.r(C)p.d(C)p.d(T)}$$$RNA1{StrandType:ss}|RNA2{StrandType:as}$,87.2
4,RNA1{r(G)p.r(G)p.r(U)p.r(C)p.r(C)p.r(C)p.r(C)p.r(A)p.r(G)p.r(C)p.r(A)p.r(C)p.r(U)p.r(G)p.r(C)p.r(A)p.r(G)p.r(A)p.r(U)p.d(T)p.d(T)}|RNA2{r(A)p.r(U)p.r(C)p.r(U)p.r(G)p.r(C)p.r(A)p.r(G)p.r(U)p.r(G)p.r(C)p.r(U)p.r(G)p.r(G)p.r(G)p.r(G)p.r(A)p.r(C)p.r(C)p.d(A)p.d(C)}$$$RNA1{StrandType:ss}|RNA2{StrandType:as}$,62.2
5,RNA1{r(G)p.r(U)p.r(A)p.r(G)p.r(A)p.r(C)p.r(A)p.r(A)p.r(G)p.r(U)p.r(U)p.r(G)p.r(G)p.r(G)p.r(A)p.r(A)p.r(G)p.r(A)p.r(A)p.d(T)p.d(T)}|RNA2{r(U)p.r(U)p.r(C)p.r(U)p.r(U)p.r(C)p.r(C)p.r(C)p.r(A)p.r(A)p.r(C)p.r(U)p.r(U)p.r(G)p.r(U)p.r(C)p.r(U)p.r(A)p.r(C)p.d(A)p.d(T)}$$$RNA1{StrandType:ss}|RNA2{StrandType:as}$,94
6,RNA1{r(G)p.r(U)p.r(G)p.r(G)p.r(U)p.r(C)p.r(A)p.r(U)p.r(U)p.r(G)p.r(C)p.r(U)p.r(G)p.r(G)p.r(C)p.r(C)p.r(C)p.r(U)p.r(C)p.d(T)p.d(T)}|RNA2{r(G)p.r(A)p.r(G)p.r(G)p.r(G)p.r(C)p.r(C)p.r(A)p.r(G)p.r(C)p.r(A)p.r(A)p.r(U)p.r(G)p.r(A)p.r(C)p.r(C)p.r(A)p.r(C)p.d(A)p.d(T)}$$$RNA1{StrandType:ss}|RNA2{StrandType:as}$,54.1
7,RNA1{r(G)p.r(U)p.r(G)p.r(G)p.r(U)p.r(C)p.r(C)p.r(C)p.r(C)p.r(A)p.r(G)p.r(C)p.r(A)p.r(C)p.r(U)p.r(G)p.r(C)p.r(A)p.r(G)p.d(T)p.d(T)}|RNA2{r(C)p.r(U)p.r(G)p.r(C)p.r(A)p.r(G)p.r(U)p.r(G)p.r(C)p.r(U)p.r(G)p.r(G)p.r(G)p.r(G)p.r(A)p.r(C)p.r(C)p.r(A)p.r(C)p.d(T)p.d(T)}$$$RNA1{StrandType:ss}|RNA2{StrandType:as}$,59.4
8,RNA1{r(G)p.r(U)p.r(U)p.r(C)p.r(C)p.r(U)p.r(G)p.r(G)p.r(C)p.r(A)p.r(U)p.r(C)p.r(A)p.r(A)p.r(A)p.r(G)p.r(C)p.r(C)p.r(G)p.d(T)p.d(T)}|RNA2{r(C)p.r(G)p.r(G)p.r(C)p.r(U)p.r(U)p.r(U)p.r(G)p.r(A)p.r(U)p.r(G)p.r(C)p.r(C)p.r(A)p.r(G)p.r(G)p.r(A)p.r(A)p.r(C)p.d(T)p.d(G)}$$$RNA1{StrandType:ss}|RNA2{StrandType:as}$,78.2
9,RNA1{r(U)p.r(A)p.r(G)p.r(A)p.r(G)p.r(C)p.r(A)p.r(U)p.r(G)p.r(G)p.r(A)p.r(C)p.r(U)p.r(A)p.r(G)p.r(G)p.r(C)p.r(U)p.r(A)p.d(T)p.d(T)}|RNA2{r(U)p.r(A)p.r(G)p.r(C)p.r(C)p.r(U)p.r(A)p.r(G)p.r(U)p.r(C)p.r(C)p.r(A)p.r(U)p.r(G)p.r(C)p.r(U)p.r(C)p.r(U)p.r(A)p.d(G)p.d(C)}$$$RNA1{StrandType:ss}|RNA2{StrandType:as}$,73.8
10,RNA1{r(U)p.r(A)p.r(G)p.r(A)p.r(U)p.r(A)p.r(U)p.r(U)p.r(U)p.r(U)p.r(G)p.r(A)p.r(A)p.r(A)p.r(G)p.r(A)p.r(U)p.r(A)p.r(A)p.d(T)p.d(T)}|RNA2{r(U)p.r(U)p.r(A)p.r(U)p.r(C)p.r(U)p.r(U)p.r(U)p.r(C)p.r(A)p.r(A)p.r(A)p.r(A)p.r(U)p.r(A)p.r(U)p.r(C)p.r(U)p.r(A)p.d(G)p.d(A)}$$$RNA1{StrandType:ss}|RNA2{StrandType:as}$,80.6
11,RNA1{r(U)p.r(A)p.r(G)p.r(C)p.r(G)p.r(G)p.r(A)p.r(G)p.r(C)p.r(A)p.r(G)p.r(U)p.r(G)p.r(G)p.r(A)p.r(A)p.r(G)p.r(A)p.r(C)p.d(T)p.d(T)}|RNA2{r(G)p.r(U)p.r(C)p.r(U)p.r(U)p.r(C)p.r(C)p.r(A)p.r(C)p.r(U)p.r(G)p.r(C)p.r(U)p.r(C)p.r(C)p.r(G)p.r(C)p.r(U)p.r(A)p.d(C)p.d(A)}$$$RNA1{StrandType:ss}|RNA2{StrandType:as}$,40.2
12,RNA1{r(U)p.r(A)p.r(U)p.r(U)p.r(C)p.r(C)p.r(U)p.r(U)p.r(C)p.r(C)p.r(A)p.r(G)p.r(A)p.r(A)p.r(G)p.r(A)p.r(A)p.r(U)p.r(A)p.d(T)p.d(T)}|RNA2{r(U)p.r(A)p.r(U)p.r(U)p.r(C)p.r(U)p.r(U)p.r(C)p.r(U)p.r(G)p.r(G)p.r(A)p.r(A)p.r(G)p.r(G)p.r(A)p.r(A)p.r(U)p.r(A)p.d(G)p.d(T)}$$$RNA1{StrandType:ss}|RNA2{StrandType:as}$,83
13,RNA1{r(U)p.r(C)p.r(A)p.r(U)p.r(G)p.r(U)p.r(G)p.r(G)p.r(U)p.r(C)p.r(A)p.r(U)p.r(U)p.r(G)p.r(C)p.r(U)p.r(G)p.r(G)p.r(C)p.d(T)p.d(T)}|RNA2{r(G)p.r(C)p.r(C)p.r(A)p.r(G)p.r(C)p.r(A)p.r(A)p.r(U)p.r(G)p.r(A)p.r(C)p.r(C)p.r(A)p.r(C)p.r(A)p.r(U)p.r(G)p.r(A)p.d(A)p.d(A)}$$$RNA1{StrandType:ss}|RNA2{StrandType:as}$,50.6
14,RNA1{r(U)p.r(C)p.r(C)p.r(A)p.r(G)p.r(A)p.r(U)p.r(G)p.r(A)p.r(U)p.r(C)p.r(C)p.r(A)p.r(U)p.r(U)p.r(A)p.r(G)p.r(C)p.r(A)p.d(T)p.d(T)}|RNA2{r(U)p.r(G)p.r(C)p.r(U)p.r(A)p.r(A)p.r(U)p.r(G)p.r(G)p.r(A)p.r(U)p.r(C)p.r(A)p.r(U)p.r(C)p.r(U)p.r(G)p.r(G)p.r(A)p.d(T)p.d(T)}$$$RNA1{StrandType:ss}|RNA2{StrandType:as}$,85.9
15,RNA1{r(U)p.r(C)p.r(C)p.r(C)p.r(A)p.r(A)p.r(U)p.r(C)p.r(C)p.r(A)p.r(G)p.r(A)p.r(U)p.r(G)p.r(A)p.r(U)p.r(C)p.r(C)p.r(A)p.d(T)p.d(T)}|RNA2{r(U)p.r(G)p.r(G)p.r(A)p.r(U)p.r(C)p.r(A)p.r(U)p.r(C)p.r(U)p.r(G)p.r(G)p.r(A)p.r(U)p.r(U)p.r(G)p.r(G)p.r(G)p.r(A)p.d(G)p.d(C)}$$$RNA1{StrandType:ss}|RNA2{StrandType:as}$,78.4
16,RNA1{r(U)p.r(C)p.r(C)p.r(G)p.r(C)p.r(A)p.r(C)p.r(A)p.r(G)p.r(U)p.r(U)p.r(C)p.r(U)p.r(G)p.r(C)p.r(U)p.r(A)p.r(U)p.r(C)p.d(T)p.d(T)}|RNA2{r(G)p.r(A)p.r(U)p.r(A)p.r(G)p.r(C)p.r(A)p.r(G)p.r(A)p.r(A)p.r(C)p.r(U)p.r(G)p.r(U)p.r(G)p.r(C)p.r(G)p.r(G)p.r(A)p.d(T)p.d(C)}$$$RNA1{StrandType:ss}|RNA2{StrandType:as}$,63.5
17,RNA1{r(U)p.r(C)p.r(C)p.r(U)p.r(U)p.r(C)p.r(C)p.r(A)p.r(G)p.r(A)p.r(A)p.r(G)p.r(A)p.r(A)p.r(U)p.r(A)p.r(C)p.r(C)p.r(C)p.d(T)p.d(T)}|RNA2{r(G)p.r(G)p.r(G)p.r(U)p.r(A)p.r(U)p.r(U)p.r(C)p.r(U)p.r(U)p.r(C)p.r(U)p.r(G)p.r(G)p.r(A)p.r(A)p.r(G)p.r(G)p.r(A)p.d(A)p.d(T)}$$$RNA1{StrandType:ss}|RNA2{StrandType:as}$,36.9
18,RNA1{r(U)p.r(G)p.r(A)p.r(A)p.r(A)p.r(G)p.r(A)p.r(U)p.r(A)p.r(A)p.r(G)p.r(U)p.r(G)p.r(G)p.r(U)p.r(C)p.r(C)p.r(C)p.r(C)p.d(T)p.d(T)}|RNA2{r(G)p.r(G)p.r(G)p.r(G)p.r(A)p.r(C)p.r(C)p.r(A)p.r(C)p.r(U)p.r(U)p.r(A)p.r(U)p.r(C)p.r(U)p.r(U)p.r(U)p.r(C)p.r(A)p.d(A)p.d(A)}$$$RNA1{StrandType:ss}|RNA2{StrandType:as}$,34.5
19,RNA1{r(U)p.r(G)p.r(A)p.r(U)p.r(C)p.r(C)p.r(A)p.r(U)p.r(U)p.r(A)p.r(G)p.r(C)p.r(A)p.r(A)p.r(A)p.r(U)p.r(G)p.r(A)p.r(U)p.d(T)p.d(T)}|RNA2{r(A)p.r(U)p.r(C)p.r(A)p.r(U)p.r(U)p.r(U)p.r(G)p.r(C)p.r(U)p.r(A)p.r(A)p.r(U)p.r(G)p.r(G)p.r(A)p.r(U)p.r(C)p.r(A)p.d(T)p.d(C)}$$$RNA1{StrandType:ss}|RNA2{StrandType:as}$,70.2
20,RNA1{r(U)p.r(G)p.r(G)p.r(C)p.r(A)p.r(U)p.r(C)p.r(A)p.r(A)p.r(A)p.r(G)p.r(C)p.r(C)p.r(G)p.r(A)p.r(A)p.r(C)p.r(C)p.r(A)p.d(T)p.d(T)}|RNA2{r(U)p.r(G)p.r(G)p.r(U)p.r(U)p.r(C)p.r(G)p.r(G)p.r(C)p.r(U)p.r(U)p.r(U)p.r(G)p.r(A)p.r(U)p.r(G)p.r(C)p.r(C)p.r(A)p.d(G)p.d(G)}$$$RNA1{StrandType:ss}|RNA2{StrandType:as}$,81.6
